Target: Adenosine kinase (Homo sapiens, UniProt P55263)
Test: Inhibitory activity against Human Recombinant Adenosine Kinase

Chain of Adenosine kinase (P55263 whole entry): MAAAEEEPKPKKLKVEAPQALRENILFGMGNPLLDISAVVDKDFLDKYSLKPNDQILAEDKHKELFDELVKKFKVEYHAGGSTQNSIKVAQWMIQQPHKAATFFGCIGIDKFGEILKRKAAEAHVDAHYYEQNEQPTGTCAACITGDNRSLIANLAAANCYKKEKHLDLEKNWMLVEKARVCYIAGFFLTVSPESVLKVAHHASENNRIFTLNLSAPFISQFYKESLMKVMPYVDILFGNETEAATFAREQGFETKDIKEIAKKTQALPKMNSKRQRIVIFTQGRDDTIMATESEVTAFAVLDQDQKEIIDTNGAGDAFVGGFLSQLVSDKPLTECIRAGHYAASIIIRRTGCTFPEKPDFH

Compound | IC50
C[C@H]1O[C@@H](n2cc(-c3ccccc3)c3c(N4CCc5ccccc54)ncnc32)[C@H](O)[C@@H]1O | 51 nM
C=Cc1nc2c(Nc3ccccc3)ncnc2n1[C@@H]1O[C@H](CO)[C@@H](O)[C@H]1O | 300 nM
OC[C@H]1O[C@@H](n2c(I)nc3c(N4CCc5ccccc54)ncnc32)[C@H](O)[C@@H]1O | 1000 nM
OC[C@H]1O[C@@H](n2c(Cl)nc3c(Nc4ccccc4)ncnc32)[C@H](O)[C@@H]1O | 3600 nM
OC[C@H]1O[C@@H](n2c(Nc3ccccc3)nc3c(Nc4ccccc4)ncnc32)[C@H](O)[C@@H]1O | 90 nM
CSc1nc2c(Nc3ccccc3)ncnc2n1[C@@H]1O[C@H](CO)[C@@H](O)[C@H]1O | 1000 nM
OC[C@H]1O[C@@H](n2c(N3CCc4ccccc43)nc3c(Nc4ccccc4)ncnc32)[C@H](O)[C@@H]1O | 7100 nM
C=Cc1nc2c(N3CCc4ccccc43)ncnc2n1[C@@H]1O[C@H](CO)[C@@H](O)[C@H]1O | 60 nM
CCc1nc2c(N3CCc4ccccc43)ncnc2n1[C@@H]1O[C@H](CO)[C@@H](O)[C@H]1O | 230 nM

Continued by falling IC50, values first:

IC50 | Compound
6900 nM | OC[C@H]1O[C@@H](n2c(-c3ccco3)nc3c(Nc4ccccc4)ncnc32)[C@H](O)[C@@H]1O
4500 nM | OC[C@H]1O[C@@H](n2c(I)nc3c(Nc4ccccc4)ncnc32)[C@H](O)[C@@H]1O
2900 nM | OC[C@H]1O[C@@H](n2c(-c3ccco3)nc3c(N4CCc5ccccc54)ncnc32)[C@H](O)[C@@H]1O
2000 nM | OC[C@H]1O[C@@H](n2c(N3CCc4ccccc43)nc3c(N4CCc5ccccc54)ncnc32)[C@H](O)[C@@H]1O
1000 nM | C#Cc1nc2c(N3CCc4ccccc43)ncnc2n1[C@@H]1O[C@H](CO)[C@@H](O)[C@H]1O
500 nM | OC[C@H]1O[C@@H](n2cnc3c(N4CCc5ccccc54)ncnc32)[C@H](O)[C@@H]1O
480 nM | OC[C@H]1O[C@@H](n2c(Cl)nc3c(N4CCc5ccccc54)ncnc32)[C@H](O)[C@@H]1O
200 nM | C[C@H]1O[C@@H](n2c(Nc3ccccc3)nc3c(N4CCc5ccccc54)ncnc32)[C@H](O)[C@@H]1O
150 nM | CSc1nc2c(N3CCc4ccccc43)ncnc2n1[C@@H]1O[C@H](CO)[C@@H](O)[C@H]1O
19 nM | OC[C@H]1O[C@@H](n2c(Nc3ccccc3)nc3c(N4CCc5ccccc54)ncnc32)[C@H](O)[C@@H]1O
